Experimental data as given in US10265374B2, “Occidiofungin formations and uses thereof” (MISSISSIPPI STATE UNIVERSITY, priority 2014, dated 2019).
Several values for one entry are separate records, joined by “and”; a condition that tells them apart may be missing. Equal entries are not always repeated. Entries after “also recorded” stand apart in the source; their conditions may differ.

Legend:
[1] = Single dose toxicity study, i.v. occidiofungin in 1.5% hydroxy propyl-beta-cyclodextrin/PBS; format: in vivo, mice
Procedure: Female BALB/c mice at age of 6-8 weeks old were used. These mice were purchased from Harlan and allowed to acclimate at least 2 weeks after arrival. They were housed on a 12 hour light-dark cycle in a temperature and humidity controlled animal facility that is accredited by the American Association for Accreditation of Laboratory Animal Care. Animal care and use were in accord with NIH Guidelines and Texas A&M University regulations. Protocols used for the mice models were done in accordance to the methods reported by Luster et al. (See Reference 12).
Occidiofungin was produced as previously described and aliquoted and lyophilized into 100 μg quantities in 1.8 mL centrifuge tubes. […] Mice (5 mice per group) were given occidiofungin dissolved in 1.5% hydroxy propyl-beta-cylcodextrin suspended in phosphate buffered saline (PBS). […] For the experiments, occidiofungin was administered by intravenous (i.v.) injection into the tail vein at a single dose at 5 mg/kg of body weight. The excipient control in each experiment matched the vehicle. Body weight and clinical signs (movement, posture, skin lesions, appearance of fur indicating normal grooming, and behaviors) were recorded following administration at one, four, eight, sixteen, and twenty-four hours. Necropsies were performed at 24 hours following administration of occidiofungin.
Blood and tissue samples from animals dosed at 5 mg/kg of body weight with occidiofungin in 1.5% hydroxy propyl-beta-cylcodextrin suspended in PBS were taken 24 hours following excipient or drug administration. Mice were anesthetized with isofluorane. Blood was then taken from the retroorbital plexus or heart puncture for serum biochemistry assays (alkaline phosphatase, alanine aminotransferase, aspartate aminotransferase, albumin, and blood urea nitrogen) and hematology (white blood cell count and white blood cell differentiation). Body weight was measured immediately before treatment and 24 hours later before the mice were fully anesthetized and fixed in 10% neutral buffered formalin. Histological examination was performed on a portion of each organ by using routine paraffin embedding technique and staining with hematoxylin and eosin (H & E) (See Reference 14). All the sections were examined under light microscopy for pathological changes by a co-author of this paper, who is a board certified veterinary pathologist.

[2] = Pharmacokinetics in mouse (i.v., LC-MS/MS of plasma); format: in vivo; details: 2.5 mg/kg i.v., mice
Procedure: Six week old female BALB-C mice were used for this experiment. Occidiofungin, at a concentration of 2.5 mg/kg of body weight, was administered through the tail vein of each mouse. Nine mice were randomly selected for this experiment and were grouped into three groups of three mice each. Blood was drawn at 1, 3, 5, 7, 9, 12, 24 and 48 hours post injection (hpi) from the mice. 15 μl of blood was drawn from the lateral saphenous vein of each mouse for the first three time points. Blood from three mice were pooled together and added to 5 μl of 6.4% citric acid to prevent coagulation. From the fourth time point, blood was drawn from the tail vein of the mice. Blood samples were spun down at 13000 rpm for 10 minutes to separate the plasma. The plasma and the blood pellet obtained were stored separately at −20° C. for analysis. The plasma samples were thawed and the occidiofungin was extracted using a final concentration of 50% methanol. The protein precipitate was spun down at 13000 rpm for 10 minutes and the supernatant was used for analysis. The LC-MS/MS components were carried out at ThermoScientific laboratories. Liquid chromatography was done using Acclaim 120 C18 columns (Length: 150 mm; I.D: 2.1 mm; 5 μm) to purify the occidiofungin in the sample. The occidiofungin was then subjected to MS/MS using the ThermoScientific TSQ Vantage. Fragmentation of the occidiofungin (parent mass 1216 m/z) was carried out and the fragment of 1084 m/z, which corresponds to the occidiofungin molecule without the xylose sugar, was used for quantification of occidiofungin. All data were acquired and analyzed using TraceFinder (v 3.1).

[3] = Solubility of occidiofungin; format: physicochemical
[4] = tested on: wide array of fungi; details: cited from earlier work
[5] = tested on: Saccharomyces cerevisiae gene deletion mutants; details: Δycal vs wild-type, Reference 2; cited from earlier work
[6] = single IV dose 5 mg/kg, 24 hours
[7] = single IV dose 5 mg/kg, 24 hours, mean, 5 mg/kg

occidiofungin
behavioral response at 1 hour and to a lesser extent at 4 hours post i.v. administration ([1]; 5 mg/kg i.v.): more lethargic than excipient treated mice and had ruffled fur | mice behavior by 8, 16, and 24 hour post injection ([1]; 5 mg/kg i.v.): appeared to be normal | histological examination of organ tissues ([1]; 5 mg/kg i.v., 24 hours, esophagus, stomach, small intestine, colon, liver, pancreas, spleen, kidneys, lungs, heart, brain): no histological abnormalities; also recorded: No observable differences | ratio of AST to ALT in all treated mice ([1]; 5 mg/kg i.v., 24 hours, ratio less than one indicative of liver damage): greater than one | average weight loss ([1]; single 5 mg/kg i.v. dose, 24 hours): 6.2% | Hematology: Lymphocytes % [1, 6]: 54 ± 15% | Hematology: Neutrophils % [1, 6]: 43 ± 14% | Hematology: Platelet estimate [1, 6]: 39 ± 21 xK/ul | Hematology: WBC estimate [1, 6]: 4750 ± 1225 | Serum Biochemistry: ALP [1, 6]: 99 ± 34 U/l | Serum Biochemistry: Albumin [1, 6]: 3.1 ± 0.6 g/dL | Serum Biochemistry: BUN [1, 6]: 29.6 ± 5 mg/dL | Weight Change % ([1]; single IV dose 5 mg/kg, 24 hours after administration, mean ± SD): −6.2 ± 9.9% | Serum Biochemistry: ALT (SGPT) [1, 7]: 521 U/l and 521 ± 652 U/l | Serum Biochemistry: AST (SGOT) [1, 7]: 765 U/l and 765 ± 692 U/l | toxicity observed in mice ([1]; single i.v. dose at 5 mg/kg): no significant toxicity | clearance from the system by 24 hours [2]: rapidly cleared | concentration at 9-12 hpi compared to the concentration at 7 hpi [2]: 2.5 times | concentration of occidiofungin relative to the TC50 value for the cancer strains [2]: three to six fold higher | time at which occidiofungin concentration peaked [2]: around 9 hpi | concentration by 48 hours ([2]; limit of quantification 50 ng/ml): below the level of quantification | peak concentration in blood/plasma ([2]; tail vein): 480 ng/mL | O.D.600 after addition of vehicle to the purified dried drug ([3]; 1.5% hydroxy propyl-beta-cyclodextrin in PBS, suggests the drug went into solution): negligible absorbance difference to vehicle without drug | solubility in aqueous buffers ([3]; aqueous buffers): relatively low | concentrations at which antifungal activity was observed [4]: micromolar to sub micromolar | increase in resistance on deletion of the ycal gene [5]: 2 fold
